Reference: patent publication US20080070865A1, “TRIPHENYLPHOSPHINE OXIDE DERIVATIVES AND USES THEREOF” (Redpoint Bio Corporation, priority 2006, published 2008)

target: T1, human TRPM5 ion channel (Homo sapiens, UniProt Q9NZQ8); test: TRPM5 FLIPR membrane potential assay; type: cell-based; conditions: HEK293 cells stably expressing human TRPM5, membrane potential dye, stimulation with 3 μM ATP
T1 construct: expressed in transfected cells
T1 sequence (Q9NZQ8 1-1165): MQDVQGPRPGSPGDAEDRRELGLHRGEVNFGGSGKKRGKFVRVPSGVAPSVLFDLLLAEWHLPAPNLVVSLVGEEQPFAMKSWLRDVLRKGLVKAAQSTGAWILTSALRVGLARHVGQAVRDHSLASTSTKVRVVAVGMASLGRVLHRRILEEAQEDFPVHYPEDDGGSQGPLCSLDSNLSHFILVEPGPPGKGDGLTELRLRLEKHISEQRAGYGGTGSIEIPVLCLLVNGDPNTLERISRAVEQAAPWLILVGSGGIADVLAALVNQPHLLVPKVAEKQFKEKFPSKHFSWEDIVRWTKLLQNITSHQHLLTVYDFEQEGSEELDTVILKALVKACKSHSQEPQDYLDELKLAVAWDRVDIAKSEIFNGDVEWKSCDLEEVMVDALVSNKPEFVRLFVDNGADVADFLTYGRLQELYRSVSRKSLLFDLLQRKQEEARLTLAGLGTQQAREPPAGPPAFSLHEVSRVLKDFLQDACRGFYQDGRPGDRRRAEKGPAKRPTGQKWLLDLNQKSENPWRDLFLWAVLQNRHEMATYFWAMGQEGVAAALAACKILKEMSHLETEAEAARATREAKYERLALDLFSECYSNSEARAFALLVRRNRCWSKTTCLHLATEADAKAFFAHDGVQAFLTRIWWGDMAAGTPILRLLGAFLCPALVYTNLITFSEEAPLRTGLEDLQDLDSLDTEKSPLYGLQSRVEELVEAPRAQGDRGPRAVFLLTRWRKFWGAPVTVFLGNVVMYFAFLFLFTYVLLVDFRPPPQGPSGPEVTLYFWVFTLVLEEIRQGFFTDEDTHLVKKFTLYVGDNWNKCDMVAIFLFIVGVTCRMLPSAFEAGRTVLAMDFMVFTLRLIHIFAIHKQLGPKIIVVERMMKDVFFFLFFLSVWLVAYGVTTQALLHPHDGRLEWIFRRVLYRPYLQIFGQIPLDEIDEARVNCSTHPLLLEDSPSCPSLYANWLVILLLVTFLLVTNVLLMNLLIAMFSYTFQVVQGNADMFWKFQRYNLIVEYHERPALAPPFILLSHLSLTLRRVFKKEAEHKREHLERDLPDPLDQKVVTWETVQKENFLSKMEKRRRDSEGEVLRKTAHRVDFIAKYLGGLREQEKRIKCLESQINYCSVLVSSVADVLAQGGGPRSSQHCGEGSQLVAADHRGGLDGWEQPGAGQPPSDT
Experimental: The activity of human TRPM5 ion channel was measured in live cells on a fluorescent imaging plate reader (FLIPR). The basis of the assay (shown in FIG. 1) is the calcium-dependent activation of the ion channel which occurs by activation of a G-protein coupled receptor (GPCR). GPCR activation by an appropriate agonist causes a transient increase in […] Ca^2+ ion concentration which in turn causes the ion channel to open, letting in Na^+ ions. This influx causes a change in the membrane potential of the cell which can be monitored as a change in the fluorescent signal from voltage-dependent (membrane potential) fluorescent dyes. […] For the screening assay, the human TRPM5 gene was cloned, put into HEK293 cells, and a stable, high expression clone was used for screening. Cells were grown in standard media at 37° C. The day before screening, the cells were removed from flasks and added to 384 well clear bottom plates (8K cells in 20 μL/well). On the assay day, 20 μL of membrane potential dye (Part No. R8123, Molecular Devices Corp.) was added to the cells and dye was allowed to be taken up, i.e., load, into the cells for 1 hr at 37° C. […] The assay was started by addition of 10 μL of solution from the compound plate into the cell plate. During this process, continuous fluorescent recordings were made simultaneously for all wells. After addition of the compound solution, the tips were automatically washed and a stimulation solution of 3 μM ATP (an agonist for an endogenous purinurgic GPCR, was added to all wells of the cell plate. The height of the response was calculated and percent inhibition values, versus negative control wells, was calculated for the test samples. Unless otherwise indicated, the data in the table below were determined using the three assays described above, providing percent inhibition data at 10 μM.

IC50, > 100 µM:
COc1ccccc1P(=O)(c1ccccc1)c1ccccc1 [Example 5]
CN(C)c1ccc(P(=O)(c2ccc(N(C)C)cc2)c2ccc(N(C)C)cc2)cc1 [Example 6]

IC50, 5 µM:
Nc1ccccc1P(=O)(c1ccccc1)c1ccccc1 [Example 4]
O=P(c1ccccc1)(c1ccccc1)c1ccc(O)cc1 [Example 3]
O=P(c1ccccc1)(c1ccccc1)c1ccccc1 [Example 1]
O=P(c1ccccc1)(c1ccccc1)c1ccccc1O [Example 2]
